Reference: US11623919B2, “Heterocyclic P2X7 antagonists” (AXXAM S.P.A., priority 2017, dated 2023)

How the values were obtained:
Test in all cases: Screen Quest Fluo-8 No Wash Calcium Assay (Bz-ATP evoked Ca2+ influx, FLIPR)
Assay type in all cases: cell-based
[1] = target: T1, P2X7 receptor (Mus musculus, UniProt Q9Z1M0); details: mP2X7; HEK-293 cells stably transfected with P2X7 receptor, Bz-ATP at EC80, Fluo-8 NW; potency ranges A-D
T1 construct: mP2X7 (IC50; nM); other: mP2X7; HEK-293 cells stably transfected with P2X7 receptor, Bz-ATP at EC80, Fluo-8 NW; potency
T1 sequence (Q9Z1M0 1-595): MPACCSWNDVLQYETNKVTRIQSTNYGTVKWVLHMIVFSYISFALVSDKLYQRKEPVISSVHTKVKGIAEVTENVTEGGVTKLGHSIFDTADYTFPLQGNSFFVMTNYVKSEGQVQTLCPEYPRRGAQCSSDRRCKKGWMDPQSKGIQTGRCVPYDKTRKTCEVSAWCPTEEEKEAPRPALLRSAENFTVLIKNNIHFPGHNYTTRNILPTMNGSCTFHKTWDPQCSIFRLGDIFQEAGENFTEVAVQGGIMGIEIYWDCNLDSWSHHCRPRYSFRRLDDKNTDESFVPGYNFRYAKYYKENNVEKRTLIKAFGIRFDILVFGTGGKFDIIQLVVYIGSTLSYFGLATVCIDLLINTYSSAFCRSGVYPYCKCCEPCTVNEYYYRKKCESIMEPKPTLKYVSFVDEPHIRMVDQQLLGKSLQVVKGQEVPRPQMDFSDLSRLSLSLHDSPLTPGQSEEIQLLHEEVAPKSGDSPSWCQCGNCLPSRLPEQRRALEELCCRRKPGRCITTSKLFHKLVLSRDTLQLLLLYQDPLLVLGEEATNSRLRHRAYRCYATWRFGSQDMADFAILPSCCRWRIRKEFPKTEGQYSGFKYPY
Method: (§1) Extracellular binding of Bz-ATP to P2X7 receptor opens the channel and allows Ca2+ influx into the cells. […] Once inside the cell, the lipophilic blocking groups of Fluo-8 are cleaved by non-specific cell esterases, resulting in a negatively-charged fluorescent dye that stays inside cells. Its fluorescence increases upon binding to calcium.
(§2) HEK-293 cells stably transfected with P2X7 receptor were seeded overnight in growth medium at 10,000 to 20,000 cell/well in 384-well plate. 24 hours later, the medium was removed and the cells were pre-loaded at RT for 1 hour with 20 μL/w of Fluo-8 NW. Then 10 μL/w of tests compounds and reference antagonist A438079 at 3×-concentration were injected with the […] and the kinetic response over a period of five minutes was monitored. A second injection of 15 μL/w of 3× reference activator (Bz-ATP at EC80) was performed with the […] and the signal of the emitted fluorescence was recorded for additional three minutes. All the experiment was carried out in a Low Divalent Cation Assay Buffer (0.3 mM Ca^2+ and 0 mM Mg^2+). The effect of the test compounds was measured as percent inhibition vs the reference antagonist and IC50 values were calculated accordingly.

[2] = target: T2, P2X7 receptor (Rattus norvegicus, UniProt Q64663); details: rP2X7; HEK-293 cells stably transfected with P2X7 receptor, Bz-ATP at EC80, Fluo-8 NW; potency ranges A-D
T2 construct: rP2X7 (IC50; nM); other: rP2X7; HEK-293 cells stably transfected with P2X7 receptor, Bz-ATP at EC80, Fluo-8 NW; potency
T2 sequence (Q64663 1-595): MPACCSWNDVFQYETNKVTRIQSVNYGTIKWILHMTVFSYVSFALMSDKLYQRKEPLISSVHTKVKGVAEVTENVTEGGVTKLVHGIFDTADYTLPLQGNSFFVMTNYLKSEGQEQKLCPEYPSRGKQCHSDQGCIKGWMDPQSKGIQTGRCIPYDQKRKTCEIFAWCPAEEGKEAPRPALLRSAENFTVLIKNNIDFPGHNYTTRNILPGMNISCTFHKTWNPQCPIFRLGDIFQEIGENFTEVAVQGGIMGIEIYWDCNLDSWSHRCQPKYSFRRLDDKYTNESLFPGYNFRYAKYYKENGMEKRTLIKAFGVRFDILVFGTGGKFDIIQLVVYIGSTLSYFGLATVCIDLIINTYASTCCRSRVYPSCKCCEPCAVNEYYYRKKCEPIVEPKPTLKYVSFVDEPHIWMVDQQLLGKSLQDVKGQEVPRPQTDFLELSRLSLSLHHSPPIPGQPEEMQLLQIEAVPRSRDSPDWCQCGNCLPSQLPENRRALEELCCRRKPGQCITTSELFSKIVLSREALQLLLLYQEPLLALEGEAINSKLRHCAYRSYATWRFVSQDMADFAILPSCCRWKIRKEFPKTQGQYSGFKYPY
Method: as §1, §2

[3] = target: T3, P2X7 receptor (Homo sapiens, UniProt Q99572); parameters: hP2X7 (IC50; nM); other: hP2X7; HEK-293 cells stably transfected with P2X7 receptor, Bz-ATP at EC80, Fluo-8 NW; potency; details: hP2X7; HEK-293 cells stably transfected with P2X7 receptor, Bz-ATP at EC80, Fluo-8 NW; potency ranges A-D
T3 sequence (Q99572 1-595): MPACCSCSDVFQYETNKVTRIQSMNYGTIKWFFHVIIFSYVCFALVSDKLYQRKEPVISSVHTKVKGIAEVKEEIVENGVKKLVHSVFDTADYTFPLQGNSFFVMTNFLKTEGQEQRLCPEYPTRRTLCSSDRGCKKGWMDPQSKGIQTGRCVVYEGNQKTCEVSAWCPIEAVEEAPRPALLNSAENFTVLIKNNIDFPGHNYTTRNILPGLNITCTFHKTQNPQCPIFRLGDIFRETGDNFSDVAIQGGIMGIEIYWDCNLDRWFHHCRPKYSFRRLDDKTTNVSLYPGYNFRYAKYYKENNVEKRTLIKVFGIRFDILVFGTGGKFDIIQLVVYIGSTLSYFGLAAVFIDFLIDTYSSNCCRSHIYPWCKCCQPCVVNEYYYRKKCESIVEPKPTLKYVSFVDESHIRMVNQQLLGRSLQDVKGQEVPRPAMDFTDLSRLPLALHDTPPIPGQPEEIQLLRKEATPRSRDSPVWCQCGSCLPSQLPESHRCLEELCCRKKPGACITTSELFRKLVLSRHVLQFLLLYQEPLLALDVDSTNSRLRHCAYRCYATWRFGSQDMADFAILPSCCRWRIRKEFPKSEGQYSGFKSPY
Method: as §1, §2

IC50 [1] [nM]	IC50 [2] [nM]	IC50 [3] [nM]	SMILES
1000 to 10000	1000 to 10000	> 10000	O=c1onc(CC2CCC(F)(F)CC2)n1Cc1ccno1 [Example 199, 3-[(4,4-difluorocyclohexyl)methyl]-4-[(1,2-oxazol-5-yl)methyl]-1,2,4-oxadiazol-5(4H)-one]
1000 to 10000	200 to 1000	200 to 1000	O=c1onc(Cc2c(F)cccc2Cl)n1CC1CC=CC1 [Example 183, 3-[(2-chloro-6-fluorophenyl)methyl]-4-(cyclopent-3-en-1-ylmethyl)-4,5-dihydro-1,2,4-oxadiazol-5-one]
200 to 1000	< 200	< 200	O=c1onc(CN2CCC(F)(F)CC2)n1Cc1c(F)cccc1Cl [Example 220, 4-[(2-chloro-6-fluorophenyl)methyl]-3-[(4,4-difluoropiperidin-1-yl)methyl]-4,5-dihydro-1,2,4-oxadiazol-5-one]
200 to 1000	200 to 1000	< 200	O=c1onc(CN2CCOc3ccccc32)n1Cc1ccc(F)cc1 [Example 228, 3-(3,4-dihydro-2H-1,4-benzoxazin-4-ylmethyl)-4-[(4-fluorophenyl)methyl]-4,5-dihydro-1,2,4-oxadiazol-5-one]
> 10000	> 10000	> 10000	O=c1onc(CC2CCC(F)(F)CC2)n1Cc1ccc(C(F)(F)F)nc1 [Example 189, 3-[(4,4-difluorocyclohexyl)methyl]-4-{[6-(trifluoromethyl)pyridin-3-yl]methyl}-4,5-dihydro-1,2,4-oxadiazol-5-one]
> 10000	> 10000	> 10000	Cc1nc(Cn2c(CC3CCC(F)(F)CC3)noc2=O)no1 [Example 196, 3-[(4,4-difluorocyclohexyl)methyl]-4-[(5-methyl-1,2,4-oxadiazol-3-yl)methyl]-1,2,4-oxadiazol-5(4H)-one]

More lines, now with the values behind:

SMILES	IC50 [1] [nM]	IC50 [2] [nM]	IC50 [3] [nM]
CCCCn1c(Cc2c(F)cccc2Cl)noc1=O [Example 177, 4-butyl-3-[(2-chloro-6-fluorophenyl)methyl]-4,5-dihydro-1,2,4-oxadiazol-5-one]	> 10000	1000 to 10000	1000 to 10000
O=c1onc(Cc2ccccc2C(F)(F)F)n1Cc1ccc(F)cc1 [Example 105, 4-[(4-fluorophenyl)methyl]-3-{[2-(trifluoromethyl)phenyl]methyl}-4,5-dihydro-1,2,4-oxadiazol-5-one]	1000 to 10000	1000 to 10000	1000 to 10000
O=c1snc(Cc2c(F)cccc2Cl)n1Cc1ccc(F)cc1 [Example 139, 3-[(2-chloro-6-fluorophenyl)methyl]-4-[(4-fluorophenyl)methyl]-4,5-dihydro-1,2,4-thiadiazol-5-one]	1000 to 10000	200 to 1000	200 to 1000
O=c1onc(Cc2c(F)cccc2Cl)n1Cc1ncco1 [Example 32, 3-[(2-chloro-6-fluorophenyl)methyl]-4-(1,3-oxazol-2-ylmethyl)-4,5-dihydro-1,2,4-oxadiazol-5-one]	> 10000	> 10000	> 10000
O=c1onc(CC2CCC(F)(F)CC2)n1CCc1ccccc1 [Example 172, 3-[(4,4-difluorocyclohexyl)methyl]-4-(2-phenylethyl)-4,5-dihydro-1,2,4-oxadiazol-5-one]	> 10000	1000 to 10000	> 10000
O=c1onc(Cc2ccccc2F)n1Cc1ccc(F)cc1 [Example 75, 3-[(2-fluorophenyl)methyl]-4-[(4-fluorophenyl)methyl]-4,5-dihydro-1,2,4-oxadiazol-5-one]	1000 to 10000	1000 to 10000	1000 to 10000
O=c1onc(Cc2c(F)cccc2Cl)n1CCCN1CCCCC1 [Example 180, 3-[(2-chloro-6-fluorophenyl)methyl]-4-[3-(piperidin-1-yl)propyl]-4,5-dihydro-1,2,4-oxadiazol-5-one]	> 10000	> 10000	> 10000
COc1cc(Cn2c(Cc3ccc(F)cc3)noc2=O)cc(OC)c1 [Example 4, 4-[(3,5-dimethoxyphenyl)methyl]-3-[(4-fluorophenyl)methyl]-4,5-dihydro-1,2,4-oxadiazol-5-one]	> 10000	> 10000	> 10000
O=c1onc(Cc2cccc(F)c2)n1CC1CCCCC1 [Example 125, 4-(cyclohexylmethyl)-3-[(3-fluorophenyl)methyl]-4,5-dihydro-1,2,4-oxadiazol-5-one]	1000 to 10000	200 to 1000	1000 to 10000
O=c1onc(Cc2cccc(C(F)(F)F)c2Cl)n1Cc1c(F)cccc1Cl [Example 16, 3-{[2-chloro-3-(trifluoromethyl)phenyl]methyl}-4-[(2-chloro-6-fluorophenyl)methyl]-4,5-dihydro-1,2,4-oxadiazol-5-one]	> 10000	1000 to 10000	1000 to 10000
CCC#CCn1c(Cc2c(F)cccc2Cl)noc1=O [Example 90, 3-[(2-chloro-6-fluorophenyl)methyl]-4-(pent-2-yn-1-yl)-4,5-dihydro-1,2,4-oxadiazol-5-one]	> 10000	1000 to 10000	1000 to 10000
Cc1ccccc1Cn1c(Cc2c(F)cccc2Cl)noc1=O [Example 27, 3-[(2-chloro-6-fluorophenyl)methyl]-4-[(2-methylphenyl)methyl]-4,5-dihydro-1,2,4-oxadiazol-5-one]	1000 to 10000	1000 to 10000	1000 to 10000
O=c1onc(CC2CCC(F)(F)CC2)n1Cc1cccc(C(F)(F)F)c1Cl [Example 167, 4-{[2-chloro-3-(trifluoromethyl)phenyl]methyl}-3-[(4,4-dffluorocyclohexyl)methyl]-4,5-dihydro-1,2,4-oxadiazol-5-one]	1000 to 10000	1000 to 10000	> 10000
